Reference: PubChem BioAssay (NCI)
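Tested at 5 concentrations; 48 h exposure; 96-well plates; endpoints linearly interpolated, else capped at highest concentration. GI50 = concentration required for 50% inhibition of growth. TGI is the concentration that stops growth completely.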

Key:
Assay in all cases: DTP human tumour cell line panel, 48 h
786-0 renal = test system: 786-0 renal
HCT-15 colon = test system: HCT-15 colon
HS 578T breast = test system: HS 578T breast
KM12 colon = test system: KM12 colon
MOLT-4 leukemia = test system: MOLT-4 leukemia
NCI-H226 lung = test system: NCI-H226 lung
NCI-H23 lung = test system: NCI-H23 lung
OVCAR-8 ovarian = test system: OVCAR-8 ovarian
SK-OV-3 ovarian = test system: SK-OV-3 ovarian
T-47D breast = test system: T-47D breast

SMILES | GI50 (786-0 renal) [µM] | TGI (786-0 renal) [µM] | GI50 (HCT-15 colon) [µM] | TGI (HCT-15 colon) [µM] | GI50 (HS 578T breast) [µM] | TGI (HS 578T breast) [µM] | GI50 (KM12 colon) [µM] | TGI (KM12 colon) [µM] | GI50 (MOLT-4 leukemia) [µM] | TGI (MOLT-4 leukemia) [µM] | GI50 (NCI-H226 lung) [µM] | TGI (NCI-H226 lung) [µM] | GI50 (NCI-H23 lung) [µM] | TGI (NCI-H23 lung) [µM] | GI50 (OVCAR-8 ovarian) [µM] | TGI (OVCAR-8 ovarian) [µM] | GI50 (SK-OV-3 ovarian) [µM] | TGI (SK-OV-3 ovarian) [µM] | GI50 (T-47D breast) [µM] | TGI (T-47D breast) [µM]
O=C1CCC2=C3C4CCCCC4C(=O)C4CCCC(OC2C1)C34 (centres undefined) | 2.51 | > 29.8 | 0.472 | > 21.7 | 1.96 | 6.88 | 1.75 | 5.46 | 0.457 | 5.66 | > 41.2 | > 78.9 | 0.417 | 2.73 | 0.397 | 23.7 | 5.18 | > 100 | 3.58 | > 100
COc1cc(C)[nH]c(=O)c1CN1CCc2c(Cl)cc([C@H](OC)C3COC3)c(Cl)c2C1=O | > 100 | > 100 | > 100 | > 100 | > 100 | > 100 | > 100 | > 100 | > 100 | > 100 | > 100 | > 100 | > 100 | > 100 | > 100 | > 100 | > 100 | > 100 | 55.4 | > 100
COC1OC(CBr)C(OC(c2ccccc2)(c2ccccc2)c2ccccc2)C(OC(c2ccccc2)(c2ccccc2)c2ccccc2)C1OC(c1ccccc1)(c1ccccc1)c1ccccc1 (centres undefined) |  | > 100 |  | > 100 |  | 89.4 |  | > 100 |  | > 100 |  | 96.3 |  | > 100 |  | > 100 |  | 60.7 |  | > 100
CN(C)c1ccc2cc(-c3cc4c(oc3=O)-c3ccccc3OC4O)c(=O)oc2c1 (centres undefined) | 8.33 | > 25 | 3.81 | 8.9 | 7.14 | 19.6 | 6.05 | 16.2 | 0.919 | 5.51 | 3.28 | 7.08 | 1.41 | 13.4 | 3.2 | 15.7 | 5.96 | 19.8 | 1.01 | 8.55
Cc1cccc2c1NC(=O)[C@@]21[C@H](C(=O)c2ccccc2)[C@]2(C(=O)Nc3ccccc32)[C@H]2CCCN21 | 36 | > 100 | 25.1 | > 100 | 19.5 | > 100 | 58.9 | > 100 | 52.7 | > 100 | 27.1 | > 100 | 47 | > 100 | 25.2 | 92.3 | 43.3 | > 100 | 20.9 | > 100
CCCCNC(=O)Oc1ccc2c(=O)c3sc4c(=O)c5ccccc5c(=O)c4c3c(=O)c2c1 | 1.77 | 4.23 | 0.16 | 0.36 | 0.279 | 0.86 | 2 | 9.21 | 2.17 | 6.57 | 1.12 | 2.47 | 0.188 | 0.583 | 1.44 | 4.76 | 1.4 | 2.8 | 2.11 | 5.4
COc1ccccc1N1CCN(C(=O)c2ccc(NS(=O)(=O)c3cccc4cccnc34)cc2)CC1 | > 61.7 | > 100 | > 100 | > 100 | > 46.4 | 99.4 | > 100 | > 100 | > 100 | > 100 | > 33.2 | > 100 | > 67.2 | > 100 | > 43.5 | > 100 | > 45.5 | > 83.3 | > 22.1 | > 100
O=c1ccccc(-c2ccc(-c3ccco3)cc2)c1O | 0.834 | 14.7 | 0.373 | 41.2 | 4.94 | 76.9 | 0.743 | 17.5 | 0.501 | 51.5 | 2.31 | 23 | 1.22 | 15 | 0.507 | 29 | 1.22 | 24 | 1.56 | 80.3
O=C1/C=C/[C@@H](O)[C@@H]2C[C@@H](O)C[C@H]2/C=C/CCC[C@H](CO)O1 | 1.78 | 4.87 | 3.62 | > 100 | > 100 | > 100 | 2.42 | > 100 | 3.11 | > 100 | 1.21 | 2.74 | 2.25 | > 100 | 3 | > 100 | 4.62 | > 100 | 2.49 | 7.12
C=C1SC(=Nc2ccccc2Cl)N(C(=O)c2sc3ccccc3c2Cl)C1(C)C | 25.4 | > 81.9 | 4.94 | > 57.5 | 5.66 | 57.8 | 4.01 | > 51.9 | 3.47 | > 25.4 | 5.52 | > 74.2 | 4.41 | > 100 | 5.08 | > 100 | 7.94 | 80.2 | 3.09 | 26.8
Cc1cccc2c1O/C(=C\c1ncc([N+](=O)[O-])n1C)C2=O | 0.28 | 0.969 | 0.0874 | 0.318 | 0.375 | 4.7 | 0.262 | 0.877 | 0.0449 | 0.833 | 1.08 | 4.29 | 0.213 | 0.742 | 0.166 |  | 0.812 | 3.83 | 9.23 | 58.7
N=C1C(c2nc3ccccc3s2)=C(O)CN1c1ccc(Cl)cc1Cl | 16.9 | 48.2 | 3.65 | 22 | 25.5 | 75.9 | 11.7 | 65.7 | 22.7 | > 100 | 16.9 | 40.7 | 2.59 | 6.6 | 18.2 | 47.1 | 32.2 | > 100 | 44.9 | > 100
